Measured values: ChEMBL document CHEMBL4680144, “N-thiadiazole-4-hydroxy-2-quinolone-3-carboxamides bearing heteroaromatic rings as novel antibacterial agents: Design, synthesis, biological evaluation and target identification” (Eur J Med Chem, 2020)
Values after ≈ are worked out from the molar mass of the structure shown. Each block holds one compound with its values, some of them ahead of it.

How the values were obtained:
Staphylococcus aureus [1] = experiment: Antibacterial activity against wild type methicillin-sensitive Staphylococcus aureus ATCC 29213 assessed as inhibition of bacterial growth incubated for 18 to 24 hrs by broth microdilution method; assay type: functional; conditions: time 18-24 hrs
[2] = Inhibition of Staphylococcus aureus Gyrase B using linear pBR322 DNA as substrate incubated for 30 mins in presence of ATP by ADP-Glo assay
[3] = system: Staphylococcus epidermidis; experiment: Antibacterial activity against methicillin-resistant Staphylococcus epidermidis clinical isolate 15-2 assessed as inhibition of bacterial growth incubated for 18 to 24 hrs by broth microdilution method; assay type: functional; conditions: time 18-24 hrs
Staphylococcus aureus [4] = experiment: Antibacterial activity against methicillin-resistant Staphylococcus aureus clinical isolate 15-1 assessed as inhibition of bacterial growth incubated for 18 to 24 hrs by broth microdilution method; assay type: functional; conditions: time 18-24 hrs
[5] = system: Staphylococcus epidermidis; experiment: Antibacterial activity against methicillin-sensitive Staphylococcus epidermidis clinical isolate 15-3 assessed as inhibition of bacterial growth incubated for 18 to 24 hrs by broth microdilution method; assay type: functional; conditions: time 18-24 hrs
Staphylococcus aureus [6] = experiment: Antibacterial activity against methicillin resistant and vancomycin-intermediate sensitive Staphylococcus aureus ATCC 700788 assessed as inhibition of bacterial growth incubated for 18 to 24 hrs by broth microdilution method; assay type: functional; conditions: time 18-24 hrs
Staphylococcus aureus [7] = experiment: Antibacterial activity against methicillin-resistant Staphylococcus aureus clinical isolate 15-8 assessed as inhibition of bacterial growth incubated for 18 to 24 hrs by broth microdilution method; assay type: functional; conditions: time 18-24 hrs
Enterococcus faecalis [8] = experiment: Antibacterial activity against vancomycin-resistant Enterococcus faecalis ATCC 51575 assessed as inhibition of bacterial growth incubated for 18 to 24 hrs by broth microdilution method; assay type: functional; conditions: time 18-24 hrs
Enterococcus faecium [9] = experiment: Antibacterial activity against Enterococcus faecium clinical isolate 15-1 assessed as inhibition of bacterial growth incubated for 18 to 24 hrs by broth microdilution method; assay type: functional; conditions: time 18-24 hrs
Staphylococcus aureus [10] = experiment: Antibacterial activity against methicillin-resistant Staphylococcus aureus clinical isolate 15-6 assessed as inhibition of bacterial growth incubated for 18 to 24 hrs by broth microdilution method; assay type: functional; conditions: time 18-24 hrs
Staphylococcus aureus [11] = experiment: Antibacterial activity against methicillin-resistant Staphylococcus aureus clinical isolate 15-2 assessed as inhibition of bacterial growth incubated for 18 to 24 hrs by broth microdilution method; assay type: functional; conditions: time 18-24 hrs
[12] = system: Staphylococcus epidermidis; experiment: Antibacterial activity against methicillin-sensitive Staphylococcus epidermidis clinical isolate 15-4 assessed as inhibition of bacterial growth incubated for 18 to 24 hrs by broth microdilution method; assay type: functional; conditions: time 18-24 hrs
Staphylococcus aureus [13] = experiment: Antibacterial activity against methicillin resistant and vancomycin-intermediate sensitive Staphylococcus aureus ATCC 700699 assessed as inhibition of bacterial growth incubated for 18 to 24 hrs by broth microdilution method; assay type: functional; conditions: time 18-24 hrs
[14] = system: Staphylococcus epidermidis; experiment: Antibacterial activity against methicillin-resistant Staphylococcus epidermidis clinical isolate 15-1 assessed as inhibition of bacterial growth incubated for 18 to 24 hrs by broth microdilution method; assay type: functional; conditions: time 18-24 hrs
Staphylococcus aureus [15] = experiment: Antibacterial activity against methicillin-resistant Staphylococcus aureus clinical isolate 15-9 assessed as inhibition of bacterial growth incubated for 18 to 24 hrs by broth microdilution method; assay type: functional; conditions: time 18-24 hrs
Staphylococcus aureus [16] = experiment: Antibacterial activity against methicillin-resistant Staphylococcus aureus clinical isolate 15-7 assessed as inhibition of bacterial growth incubated for 18 to 24 hrs by broth microdilution method; assay type: functional; conditions: time 18-24 hrs
Staphylococcus aureus [17] = experiment: Antibacterial activity against methicillin-resistant Staphylococcus aureus clinical isolate 15-3 assessed as inhibition of bacterial growth incubated for 18 to 24 hrs by broth microdilution method; assay type: functional; conditions: time 18-24 hrs
Enterococcus faecalis [18] = experiment: Antibacterial activity against vancomycin-resistant Enterococcus faecalis ATCC 51299 assessed as inhibition of bacterial growth incubated for 18 to 24 hrs by broth microdilution method; assay type: functional; conditions: time 18-24 hrs
Enterococcus faecalis [19] = experiment: Antibacterial activity against Enterococcus faecalis clinical isolate 15-2 assessed as inhibition of bacterial growth incubated for 18 to 24 hrs by broth microdilution method; assay type: functional; conditions: time 18-24 hrs
[20] = system: Staphylococcus epidermidis; experiment: Antibacterial activity against methicillin-resistant Staphylococcus epidermidis clinical isolate 15-3 assessed as inhibition of bacterial growth incubated for 18 to 24 hrs by broth microdilution method; assay type: functional; conditions: time 18-24 hrs
Enterococcus faecalis [21] = experiment: Antibacterial activity against vancomycin-resistant Enterococcus faecalis ATCC 700802 assessed as inhibition of bacterial growth incubated for 18 to 24 hrs by broth microdilution method; assay type: functional; conditions: time 18-24 hrs
Enterococcus faecium [22] = experiment: Antibacterial activity against Enterococcus faecium clinical isolate 15-2 assessed as inhibition of bacterial growth incubated for 18 to 24 hrs by broth microdilution method; assay type: functional; conditions: time 18-24 hrs
Enterococcus faecalis [23] = experiment: Antibacterial activity against Enterococcus faecalis clinical isolate 15-1 assessed as inhibition of bacterial growth incubated for 18 to 24 hrs by broth microdilution method; assay type: functional; conditions: time 18-24 hrs

MIC (Staphylococcus aureus [1]): 3.12 µg/mL (≈ 7.87 µM)
IC50 [2]: 0.49 µM
SMILES: CCn1c(=O)c(C(=O)Nc2nnc(-c3ccn(C)n3)s2)c(O)c2ccccc21

MIC (Staphylococcus aureus [1]): 12.5 µg/mL (≈ 29.3 µM)
IC50 [2]: 1.46 µM
SMILES: CCn1c(=O)c(C(=O)Nc2nnc(-c3ccc(Cl)cc3)s2)c(O)c2ccccc21

SMILES: CCn1c(=O)c(C(=O)Nc2nnc(-c3ccccc3)s2)c(O)c2ccccc21
MIC [3]: 1 µg/mL (≈ 2.55 µM)
MIC (Staphylococcus aureus [4]): 2 µg/mL (≈ 5.1 µM)
MIC [5]: 1 µg/mL (≈ 2.55 µM)
MIC (Staphylococcus aureus [6]): 2 µg/mL (≈ 5.1 µM)
MIC (Staphylococcus aureus [1]): 0.39 µg/mL (≈ 0.994 µM)
MIC (Staphylococcus aureus [7]): 0.5 µg/mL (≈ 1.27 µM)
MIC (Enterococcus faecalis [8]): 1 µg/mL (≈ 2.55 µM)
MIC (Enterococcus faecium [9]): 1 µg/mL (≈ 2.55 µM)
MIC (Staphylococcus aureus [10]): 0.5 µg/mL (≈ 1.27 µM)
MIC (Staphylococcus aureus [11]): 2 µg/mL (≈ 5.1 µM)
MIC [12]: 1 µg/mL (≈ 2.55 µM)
MIC (Staphylococcus aureus [13]): 2 µg/mL (≈ 5.1 µM)
MIC [14]: 1 µg/mL (≈ 2.55 µM)
MIC (Staphylococcus aureus [15]): 0.25 µg/mL (≈ 0.637 µM)
MIC (Staphylococcus aureus [16]): 1 µg/mL (≈ 2.55 µM)
MIC (Staphylococcus aureus [17]): 1 µg/mL (≈ 2.55 µM)
MIC (Enterococcus faecalis [18]): 1 µg/mL (≈ 2.55 µM)
MIC (Enterococcus faecalis [19]): 1 µg/mL (≈ 2.55 µM)
MIC [20]: 1 µg/mL (≈ 2.55 µM)
MIC (Enterococcus faecalis [21]): 1 µg/mL (≈ 2.55 µM)
MIC (Enterococcus faecium [22]): 2 µg/mL (≈ 5.1 µM)
MIC (Enterococcus faecalis [23]): 1 µg/mL (≈ 2.55 µM)
IC50 [2]: 1.72 µM

MIC (Staphylococcus aureus [1]): 50 µg/mL (≈ 114 µM)
IC50 [2]: 1.61 µM
SMILES: CCn1c(=O)c(C(=O)Nc2nnc(-c3ccc([N+](=O)[O-])cc3)s2)c(O)c2ccccc21

SMILES: CCn1c(=O)c(C(=O)Nc2nnc(C)s2)c(O)c2ccccc21
MIC [3]: > 64 µg/mL
MIC (Staphylococcus aureus [4]): 2 µg/mL (≈ 6.05 µM)
MIC [5]: > 64 µg/mL
MIC (Staphylococcus aureus [6]): > 64 µg/mL
MIC (Staphylococcus aureus [1]): 0.78 µg/mL (≈ 2.36 µM)
MIC (Staphylococcus aureus [7]): 2 µg/mL (≈ 6.05 µM)
MIC (Enterococcus faecalis [8]): > 64 µg/mL
MIC (Enterococcus faecium [9]): > 64 µg/mL
MIC (Staphylococcus aureus [10]): 2 µg/mL (≈ 6.05 µM)
MIC (Staphylococcus aureus [11]): 4 µg/mL (≈ 12.1 µM)
MIC [12]: > 64 µg/mL
MIC (Staphylococcus aureus [13]): > 64 µg/mL
MIC [14]: > 64 µg/mL
MIC (Staphylococcus aureus [15]): 4 µg/mL (≈ 12.1 µM)
MIC (Staphylococcus aureus [16]): 4 µg/mL (≈ 12.1 µM)
MIC (Staphylococcus aureus [17]): 2 µg/mL (≈ 6.05 µM)
MIC (Enterococcus faecalis [18]): > 64 µg/mL
MIC (Enterococcus faecalis [19]): > 64 µg/mL
MIC (Enterococcus faecalis [21]): > 64 µg/mL
MIC (Enterococcus faecium [22]): > 64 µg/mL
MIC (Enterococcus faecalis [23]): > 64 µg/mL
IC50 [2]: 0.24 µM

MIC (Staphylococcus aureus [1]): 12.5 µg/mL (≈ 28.6 µM)
IC50 [2]: 2.35 µM
SMILES: CCOc1ccccc1-c1nnc(NC(=O)c2c(O)c3ccccc3n(CC)c2=O)s1

MIC (Staphylococcus aureus [1]): 3.12 µg/mL (≈ 7.39 µM)
IC50 [2]: 0.76 µM
SMILES: CCn1c(=O)c(C(=O)Nc2nnc(-c3ccccc3OC)s2)c(O)c2ccccc21

MIC (Staphylococcus aureus [1]): 12.5 µg/mL (≈ 30.8 µM)
IC50 [2]: 1.75 µM
SMILES: CCn1c(=O)c(C(=O)Nc2nnc(-c3cccc(C)c3)s2)c(O)c2ccccc21

MIC (Staphylococcus aureus [1]): 6.25 µg/mL (≈ 20.7 µM)
IC50 [2]: 0.19 µM
SMILES: Cn1c(=O)c(C(=O)Nc2nncs2)c(O)c2ccccc21

MIC (Staphylococcus aureus [1]): 12.5 µg/mL (≈ 26.5 µM)
IC50 [2]: 2.19 µM
SMILES: CCn1c(=O)c(C(=O)Nc2nnc(-c3ccc(Br)cc3)s2)c(O)c2ccccc21

MIC (Staphylococcus aureus [1]): 6.25 µg/mL (≈ 15.4 µM)
IC50 [2]: 0.64 µM
SMILES: CCn1c(=O)c(C(=O)Nc2nnc(-c3ccc(C)cc3)s2)c(O)c2ccccc21

SMILES: CCn1c(=O)c(C(=O)Nc2nnc(-c3cccnc3)s2)c(O)c2ccccc21
MIC [3]: 1 µg/mL (≈ 2.54 µM)
MIC (Staphylococcus aureus [4]): 0.5 µg/mL (≈ 1.27 µM)
MIC [5]: 2 µg/mL (≈ 5.08 µM)
MIC (Staphylococcus aureus [6]): 1 µg/mL (≈ 2.54 µM)
MIC (Staphylococcus aureus [1]): 0.39 µg/mL (≈ 0.991 µM)
MIC (Staphylococcus aureus [7]): 0.5 µg/mL (≈ 1.27 µM)
MIC (Enterococcus faecalis [8]): > 64 µg/mL
MIC (Enterococcus faecium [9]): > 64 µg/mL
MIC (Staphylococcus aureus [10]): 0.5 µg/mL (≈ 1.27 µM)
MIC (Staphylococcus aureus [11]): 0.5 µg/mL (≈ 1.27 µM)
MIC [12]: 1 µg/mL (≈ 2.54 µM)
MIC (Staphylococcus aureus [13]): 1 µg/mL (≈ 2.54 µM)
MIC [14]: 1 µg/mL (≈ 2.54 µM)
MIC (Staphylococcus aureus [15]): 0.5 µg/mL (≈ 1.27 µM)
MIC (Staphylococcus aureus [16]): 0.5 µg/mL (≈ 1.27 µM)
MIC (Staphylococcus aureus [17]): 0.5 µg/mL (≈ 1.27 µM)
MIC (Enterococcus faecalis [18]): > 64 µg/mL
MIC (Enterococcus faecalis [19]): > 64 µg/mL
MIC [20]: 1 µg/mL (≈ 2.54 µM)
MIC (Enterococcus faecalis [21]): > 64 µg/mL
MIC (Enterococcus faecium [22]): > 64 µg/mL
MIC (Enterococcus faecalis [23]): > 64 µg/mL
IC50 [2]: 0.24 µM

MIC (Staphylococcus aureus [1]): 1.56 µg/mL (≈ 3.97 µM)
IC50 [2]: 0.24 µM
SMILES: CCn1c(=O)c(C(=O)Nc2nnc(-c3ccncc3)s2)c(O)c2ccccc21

MIC (Staphylococcus aureus [1]): 1.56 µg/mL (≈ 3.69 µM)
IC50 [2]: 2.17 µM
SMILES: CCn1c(=O)c(C(=O)Nc2nnc(-c3cccc(OC)c3)s2)c(O)c2ccccc21

MIC (Staphylococcus aureus [1]): 3.12 µg/mL (≈ 9.44 µM)
IC50 [2]: 0.46 µM
SMILES: CCCn1c(=O)c(C(=O)Nc2nncs2)c(O)c2ccccc21

MIC (Staphylococcus aureus [1]): 1.56 µg/mL (≈ 4.93 µM)
IC50 [2]: 0.11 µM
SMILES: CCn1c(=O)c(C(=O)Nc2nncs2)c(O)c2ccccc21

MIC (Staphylococcus aureus [1]): 25 µg/mL (≈ 60.9 µM)
IC50 [2]: 2.3 µM
SMILES: CCn1c(=O)c(C(=O)Nc2nnc(-c3ccc(F)cc3)s2)c(O)c2ccccc21
